# From a melting point compilation (Tetko et al.; mined from patent text by program, amines drawn as free bases though some values may be those of a salt)
row,melting point [°C],Compound
1,103 to 104,CCOC(=O)c1c(C(C)C)c(S(=O)(=O)c2ccc(OC)cc2)n2ccccc12
2,168 to 169,O=C1Nc2cccnc2N(C(=O)NCCN2CCC(CN3CCCCC3)C2)c2ccccc21 (stereo not given)
3,192 to 193,CC1(C)CCc2c(N3CCCC3)nc3sc4c(NCCc5c[nH]cn5)ncnc4c3c2C1
4,132 to 146,CC(C)(C)OC(=O)N[C@H](CCOc1ccc(C#N)cc1)C(=O)O
5,135 to 136,CC1(C)NC(=O)CN1C(=O)CNC(=O)OCc1ccccc1
6,134 to 136,Cc1ccc(OC2COc3ccc(OCc4ccc5ccccc5n4)cc3C2O)cn1 (stereo not given)
7,78,Cc1ccc(S(=O)(=O)OCC(O)(CC(C)(C)c2ccccc2)C(F)(F)F)cc1 (stereo not given)
8,99 to 104,CC1=C(c2ccc(OCC(C)NCC(O)c3cccc(Cl)c3)cc2)CCC(=O)N1 (stereo not given)
9,86 to 88,COC1(c2cccc(Sc3ccc(C(C)=NO)cc3)c2)CCN(CC(F)(F)F)C1 (stereo not given)
10,136 to 138,CC(=O)Nc1ccc(F)cc1OCc1ccccc1
11,223 to 225,NS(=O)(=O)c1ccc(NCC(=O)NC2CCCCC2)cc1
12,151 to 152,COc1ccc(C(=O)Nc2ccc(F)cc2)cc1Nc1ccccc1
13,< 40,CCOC(=O)OC1CCN(C(=O)OCC)Cc2cc3ccccc3nc21 (stereo not given)
14,126 to 127,CCSc1nnc(-c2ccccc2)n1Cc1ccc(N)cc1
15,128 to 131,CC(C)(C)c1cc(OCCCCCCc2nnn[nH]2)cc(C(C)(C)C)c1O
16,225 to 226,Cc1cc(-c2nc3cccnn3c2-c2ccnc(NC(=O)c3ccc(OC(F)(F)F)cc3)c2)ccc1F
17,129 to 130,CC(NC(=O)c1ccccc1I)C(O)c1ccccc1 (stereo not given)
18,161 to 162,CC(C)(CO)COc1c(-c2ccc(S(C)(=O)=O)cc2)cnn(-c2ccc(F)c(F)c2)c1=O
19,274 to 276,Nc1ncc2cc(-c3c(Cl)cccc3Cl)c(=O)n(Cc3c(Cl)cccc3Cl)c2n1
20,143 to 147,CC(C)(C)c1ccc2c(C=O)c3ccccc3c(Cl)c2c1
21,98 to 100,CCCCCCCCCCCCC(C)CNc1cc(C)c([N+](=O)[O-])cc1C(=O)O (stereo not given)

row,melting point [°C],Compound
1,176 to 178,COc1cc(/C=C2/C(=O)NC(=O)/C2=C/c2ccccc2)cc(OC)c1OC
2,114 to 116,CCCc1cc(Cl)c(OC(=S)N(C)C)c(C(C)=O)c1O
3,65 to 66,CCC(CC)c1nn(-c2ccc(C(F)(F)F)cn2)cc1CCCOc1ccccc1CC(=O)O
4,143 to 147,COc1ccc(C(=O)C2(O)CCCCC2C(=O)NCC(C)C)cc1 (stereo not given)
5,253 to 255,Cc1nc2c(N)nc3ccccc3c2n1CC(C)(C)OCCS(C)(=O)=O
6,210,O=C(O)c1cccc(N(C(c2ccccc2)c2ccccc2)n2cc(C3c4ccccc4C=Cc4ccccc43)c(=S)[nH]c2=O)c1
7,114 to 117,CCC(CC)c1ccc(Cl)c2nc3n(c12)CCCCN3c1ccc(OC(F)(F)F)cc1Br
8,115 to 118,CCCCCCCCCC(C)NC(=O)C=C(C)c1cccc(NC(=O)CCCC(=O)O)c1 (stereo not given)
9,167 to 170,CC(=O)CN1CCc2c(c(=O)oc3cc4c(cc23)OCO4)C1
10,70 to 72,CC(C)(C)c1cc(CCc2ccccc2NC(=O)N2CCN(Cc3ccccc3)CC2)cc(C(C)(C)C)c1O
11,232,CNC(=O)c1ccc(C=CC(=O)NCC(=O)N(C)c2ccc(C)c(CCl)c2C)cc1
12,214 to 217,CCNCC1CCN(c2c(F)cc3c(=O)c(C(=O)O)cn(C4CCCC4)c3c2F)C1 (stereo not given)
13,194,O=C(c1ccc(-c2ccncc2)nc1)N1CCN(S(=O)(=O)c2ccc3cc(Br)ccc3c2)CC1
14,212 to 214,Cc1nc2cc(Nc3ncc4ccc(-c5cccc(S(=O)(=O)NC(C)(C)C)c5)n4n3)ccc2o1
15,172,CC12CC3CC(C1)CC(CNC(=O)n1cc(F)c(=O)[nH]c1=O)(C3)C2
16,74 to 77,CC(C(=O)O)c1ccc([N+](=O)[O-])c(F)c1 (stereo not given)
17,125 to 128,COc1ccc(Cc2cc(-c3ccc(Cl)cc3)sc2Cc2ccc(OC)cc2)cc1
18,71 to 72,COC(=O)CCc1oc(Cl)nc1-c1ccc(Cl)cc1
19,188 to 190,Nc1scc2c(C(=O)NC3CC3)nn(-c3ccc(Cl)cc3)c(=O)c12
20,96 to 98,CCOC(=O)C1=CC(=O)C2(C(=O)c3ccccc3)OC2O1 (stereo not given)
21,198,CSc1ccc(-c2ccc(C(=O)Nc3cc4ncc(CN5CCCC5)cc4cc3C)cc2)cc1

row,melting point [°C],Compound
1,131,COc1ccc(CCC2COC(Cn3ccnc3)(c3ccc(Cl)cc3Cl)O2)cc1 (stereo not given)
2,82 to 84,CCOC(=O)Cc1ccc2c(c1)CC(NC(C)=O)C2 (stereo not given)
3,129 to 131,COc1cc2c(cc1OCCCN1CCC(c3noc4cc(F)ccc34)CC1)CCCC2=O
4,260 to 262,Cc1ccc(-c2ccc(C(=O)Nc3ccc4cc(CN5CCCC5)ccc4c3)cn2)cc1
5,194 to 195,CCOC(=O)/C=C/c1cn(-c2ccccc2)nc1OCc1ccc(OCc2nc(-c3ccccc3)oc2C)c(OC)c1
6,172,Cc1cc(N)nc(CCC(=O)Nc2cc(I)cnc2N)c1
7,210,CCCC1=C(C(=O)OCC)C(c2ccccc2OC(C)C)c2c[nH]nc2N1 (stereo not given)
8,100 to 105,COc1cccc(-c2nc3cc(C4=NNC(=O)SC4C)ccc3n2CC(C)C)c1 (stereo not given)
9,138 to 140,N#Cc1cc([N+](=O)[O-])ccc1N1CCOCC1
10,114 to 116,CC(=O)N[C@@H](C)c1ccc(CCl)cc1
11,188 to 189,Cc1nc2cccc(S(=O)(=O)n3c(CCC(=O)O)cc4cc(Cl)ccc43)c2s1
12,174,CC(O)c1ccc2c(c1)CCC(=O)N2 (stereo not given)
13,210,COc1cc2c(cc1OC)CN(CCCOc1ccc(NC(=O)c3cccc4c(=O)c5ccccc5sc34)cc1)CC2
14,136 to 137,Cc1cccc(Cl)c1C(N)=NO
15,236 to 240,COc1cccc(OC)c1C(=O)Nc1ccc(C(=O)O)cc1
16,203 to 205,CCCCc1ccc(NS(=O)(=O)c2ccc(N3CCNC3=O)cc2)cc1
17,35.2 to 38,C[C@H]1CCCC(C)(C)[C@@H]1C(=O)c1c(F)c(F)c(F)c(F)c1F
18,128 to 130,CCOc1cc2ncc(C#N)c(Nc3ccc4cc[nH]c4c3)c2cc1OCC
19,204 to 206,O=C(c1ccc[nH]1)c1cccn1N1C(=O)c2ccccc2C1=O
20,249 to 250,Cc1cccc(C)c1NC(=O)CC1c2ccccc2Oc2ccccc21
21,143 to 144,CCOC(=O)c1ccc(F)c(-c2cccc3cc(CBr)sc23)c1

row,Compound,melting point [°C]
1,O=c1[nH]nc2n1-c1ccc(Cl)cc1C(c1ccccc1Cl)=CC2,250 to 251
2,O=C(OCC(F)(F)F)c1ncn2c1CN=C(c1ccccc1)c1cc(Br)ccc1-2,202 to 204
3,CCCN1CCCC2c3nc(N)sc3CCC21 (stereo not given),163 to 181
4,Cc1cc(N2CCNCC2)ccn1,93 to 94
5,Cc1ccc2c(=O)[nH]c(N3CCN(C)CC3)cc2c1,242 to 243
6,C/C(Br)=C(\Br)c1cn(-c2c(Cl)cc(C(F)(F)F)cc2Cl)nc1C#N,134 to 135
7,Cc1cnc2c(c1)CCCC2Cl (stereo not given),177
